The source made the active and inactive calls.
Columns and labels:
[1] = target: E3 ubiquitin-protein ligase Mdm2 (Homo sapiens, UniProt Q00987); experiment: MDM2-luc reporter signal enhancers, multi-concentration potency testing, MDM2 ubiquitin-protein ligase inhibitor program, whole-cell format, luminescence detection, 384-well microplate (AID 1394); assay type: functional;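 also: MDM2 E3 inhibitors raise luminescence so EC50 is for signal enhancement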
[2] = test system: Streptococcus sp. 'group A'; experiment: Streptococcus pyogenes SK(-)GAS viability under kanamycin – luminescence, BacTiterGlo, confirmation, counter-screen for streptokinase expression inhibitor project, dose response (AID 1900); assay type: functional, organism-based
[3] = cells; assay type: functional, cell-based
[4] = target: T1, Streptokinase A (Streptococcus pyogenes serotype M1, UniProt P10520); experiment: viability-normalized secreted streptokinase activity reduction – plasminogen activation absorbance, OD405, dose response (AID 1914); assay type: functional, Streptococcus pyogenes M1 GAS;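 also: secreted streptokinase activity via plasminogen activation per viability signal from cell pellet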
T1 sequence (P10520 whole entry): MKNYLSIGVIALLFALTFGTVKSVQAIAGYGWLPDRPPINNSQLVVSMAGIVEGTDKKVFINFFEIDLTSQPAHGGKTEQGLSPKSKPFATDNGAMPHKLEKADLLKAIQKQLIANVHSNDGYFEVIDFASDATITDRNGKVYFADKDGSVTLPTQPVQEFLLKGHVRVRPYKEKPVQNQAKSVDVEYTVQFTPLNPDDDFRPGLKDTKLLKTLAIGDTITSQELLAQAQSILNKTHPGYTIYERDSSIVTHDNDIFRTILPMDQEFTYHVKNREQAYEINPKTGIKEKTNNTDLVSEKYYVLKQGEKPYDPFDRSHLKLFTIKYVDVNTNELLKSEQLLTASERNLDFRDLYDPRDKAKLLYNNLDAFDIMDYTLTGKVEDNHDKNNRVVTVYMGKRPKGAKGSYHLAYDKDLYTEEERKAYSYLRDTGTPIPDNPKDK

[5] = microbe, parasite or virus in culture; assay type: functional; conditions: Mycobacterium tuberculosis
[6] = cells; assay type: functional, cell-based; remark: listed apart in the source
[7] = test system: Streptococcus; experiment: GAS UMAA2166 growth inhibition – luminescence, BacTiterGlo, counter-screen for streptokinase expression inhibitor project, dose response (AID 1915); assay type: functional, organism-based;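 also: potency for reduction of bacterial viability or growth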
[8] = target: Nonstructural protein 1 (Influenza A virus, UniProt Q194T2); assay type: functional, Influenza A virus (A/California/07/2009(H1N1))
[9] = target: T2, Heat shock factor protein 1 (Mus musculus, UniProt P38532); experiment: enhancement of HSF1-driven luciferase signal – cell-based, NIH3T3, luminescence, dose retest, confirmation (AID 435004); assay type: functional;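 also: stress induced by proteasome inhibitor MG132 added 30 min after compound; luciferase reporter driven by HSF1 response element in NIH3T3 cells; actives raise luminescence as potentiators of the MG132 stress response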
T2 sequence (P38532 whole entry): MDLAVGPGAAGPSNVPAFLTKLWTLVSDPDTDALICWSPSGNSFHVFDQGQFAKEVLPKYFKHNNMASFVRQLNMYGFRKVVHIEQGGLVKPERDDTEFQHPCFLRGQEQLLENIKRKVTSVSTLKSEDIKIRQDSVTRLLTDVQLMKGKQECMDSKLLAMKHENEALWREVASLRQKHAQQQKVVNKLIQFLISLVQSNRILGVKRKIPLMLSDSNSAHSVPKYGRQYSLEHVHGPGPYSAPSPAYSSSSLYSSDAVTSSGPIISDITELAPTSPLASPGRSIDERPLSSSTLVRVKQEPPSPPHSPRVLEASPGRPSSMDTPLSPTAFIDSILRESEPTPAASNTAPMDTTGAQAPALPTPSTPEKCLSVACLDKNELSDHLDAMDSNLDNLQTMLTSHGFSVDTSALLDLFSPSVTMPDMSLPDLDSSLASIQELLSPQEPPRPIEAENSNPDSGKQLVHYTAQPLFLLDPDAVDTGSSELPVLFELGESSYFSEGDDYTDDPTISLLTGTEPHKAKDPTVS

[10] = target: T3, Replicative DNA helicase DnaB (Mycobacterium tuberculosis, UniProt P9WMR3); experiment: DnaB intein splicing inhibitors, dose response, biochemical, cell-free fluorescence (AID 449749); assay type: functional
T3 sequence (P9WMR3 whole entry): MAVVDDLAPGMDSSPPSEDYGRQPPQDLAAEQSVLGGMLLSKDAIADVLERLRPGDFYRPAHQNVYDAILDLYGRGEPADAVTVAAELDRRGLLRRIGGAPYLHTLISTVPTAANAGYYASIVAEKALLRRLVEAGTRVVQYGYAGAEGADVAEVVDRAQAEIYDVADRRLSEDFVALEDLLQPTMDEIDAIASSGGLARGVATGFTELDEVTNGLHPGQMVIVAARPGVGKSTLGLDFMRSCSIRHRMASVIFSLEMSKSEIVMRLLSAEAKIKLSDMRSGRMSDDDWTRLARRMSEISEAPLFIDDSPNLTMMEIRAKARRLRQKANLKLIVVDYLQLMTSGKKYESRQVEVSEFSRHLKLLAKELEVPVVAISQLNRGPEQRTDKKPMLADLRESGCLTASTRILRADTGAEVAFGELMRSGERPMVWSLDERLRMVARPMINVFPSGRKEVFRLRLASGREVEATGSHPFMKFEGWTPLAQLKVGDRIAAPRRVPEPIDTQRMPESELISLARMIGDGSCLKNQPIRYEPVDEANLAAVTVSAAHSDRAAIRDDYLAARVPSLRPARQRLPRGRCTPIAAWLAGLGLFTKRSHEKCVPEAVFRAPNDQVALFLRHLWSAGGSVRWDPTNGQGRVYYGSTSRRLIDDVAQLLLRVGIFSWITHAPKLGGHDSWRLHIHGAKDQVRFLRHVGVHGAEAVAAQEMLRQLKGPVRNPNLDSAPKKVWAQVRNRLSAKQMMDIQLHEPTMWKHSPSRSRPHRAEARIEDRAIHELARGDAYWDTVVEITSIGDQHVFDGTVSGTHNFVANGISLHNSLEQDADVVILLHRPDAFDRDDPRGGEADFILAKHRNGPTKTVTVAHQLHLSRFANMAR

[11] = target: T4, Protein RecA (Mycobacterium tuberculosis, UniProt P9WHJ3); experiment: Fluorescence Cell-Free Homogeneous Dose Retest to Identify Inhibitors of RecA-Intein Splicing Activity. [Related pubchem assays (depositor defined):AID2097, AID2223, AID489010, AID492950]; assay type: functional
T4 sequence (P9WHJ3 whole entry): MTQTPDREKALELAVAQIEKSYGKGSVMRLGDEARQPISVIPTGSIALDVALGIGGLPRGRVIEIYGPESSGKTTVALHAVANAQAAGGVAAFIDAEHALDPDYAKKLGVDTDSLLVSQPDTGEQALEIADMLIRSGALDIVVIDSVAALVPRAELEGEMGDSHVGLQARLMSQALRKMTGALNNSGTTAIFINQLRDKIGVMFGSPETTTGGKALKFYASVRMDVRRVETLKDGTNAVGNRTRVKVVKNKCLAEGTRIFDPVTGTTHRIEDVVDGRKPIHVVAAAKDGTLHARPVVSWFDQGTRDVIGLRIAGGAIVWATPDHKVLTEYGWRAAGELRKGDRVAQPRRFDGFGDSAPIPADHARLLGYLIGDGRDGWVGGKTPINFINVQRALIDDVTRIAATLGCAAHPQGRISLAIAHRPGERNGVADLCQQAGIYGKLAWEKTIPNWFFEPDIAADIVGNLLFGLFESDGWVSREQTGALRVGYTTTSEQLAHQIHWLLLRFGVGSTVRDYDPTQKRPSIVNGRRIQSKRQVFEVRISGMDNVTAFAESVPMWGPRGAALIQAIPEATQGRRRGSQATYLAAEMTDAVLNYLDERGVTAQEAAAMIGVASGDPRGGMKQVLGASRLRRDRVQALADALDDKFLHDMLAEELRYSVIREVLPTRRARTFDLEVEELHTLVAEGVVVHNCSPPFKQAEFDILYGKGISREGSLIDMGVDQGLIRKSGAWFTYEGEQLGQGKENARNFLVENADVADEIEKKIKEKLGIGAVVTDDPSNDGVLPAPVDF

[12] = test system: INS1; experiment: INS-1E survival protection against cytokine death – cell-based, luminescence, retest, dose response (AID 449756); assay type: functional; conditions: Rattus norvegicus;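 also: cell death triggered by IL-1 beta plus TNF-alpha plus IFN-gamma mixture; protective hits raise ATP signal compared with cytokine alone wells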
[13] = target: Photoreceptor-specific nuclear receptor (Homo sapiens, UniProt Q9Y5X4); assay type: functional, cell-based;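 also: CHO-S cells with Gal4-NCOR and VP16-NR2E3 two-hybrid luciferase reporter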
[14] = target: T5, Neuropeptides B/W receptor type 1 (Homo sapiens, UniProt P48145); experiment: Fluorescence-based dose response cell-based high throughput screening assay to identify antagonists of the G-protein coupled receptor 7 (GPR7). [Related pubchem assays: 1952 (Screening assay (GPR7 antagonists).), 1880 (Summary AID.)]; assay type: functional
T5 sequence (P48145 whole entry): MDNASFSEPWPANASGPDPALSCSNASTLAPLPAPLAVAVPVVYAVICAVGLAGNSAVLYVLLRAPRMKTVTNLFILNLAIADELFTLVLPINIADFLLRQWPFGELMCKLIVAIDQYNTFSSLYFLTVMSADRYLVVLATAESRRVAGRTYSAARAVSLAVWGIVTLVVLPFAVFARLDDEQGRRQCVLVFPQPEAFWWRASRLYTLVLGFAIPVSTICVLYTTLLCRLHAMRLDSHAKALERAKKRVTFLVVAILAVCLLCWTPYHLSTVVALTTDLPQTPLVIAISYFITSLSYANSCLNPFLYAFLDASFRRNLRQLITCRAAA

[15] = target: Melanin-concentrating hormone receptor 1 (Homo sapiens, UniProt Q99705); experiment: Fluorescence-based counterscreen for antagonists of the G-protein coupled receptor 7 (GPR7): cell-based high throughput dose response assay to identify antagonists of the melanin-concentrating hormone receptor 1 (MCHR1).; assay type: functional
[16] = target: Mu-type opioid receptor (Homo sapiens, UniProt P35372); assay type: functional, cell-based;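 also: U2OS cells with beta-arrestin recruitment to OPRM1 by beta-gal complementation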
[17] = target: T6, Long-chain-fatty-acid--AMP ligase FadD28 (Mycobacterium tuberculosis, UniProt P9WQ59); experiment: Fluorescence polarization aasay to screen for inhibitors that compete for the binding of FadD28 to a bisubstrate Measured in Biochemical System Using Plate Reader - 2147-01_Inhibitor_Dose_CherryPick_Activity.; assay type: functional, Mycobacterium tuberculosis H37Rv
T6 sequence (P9WQ59 whole entry): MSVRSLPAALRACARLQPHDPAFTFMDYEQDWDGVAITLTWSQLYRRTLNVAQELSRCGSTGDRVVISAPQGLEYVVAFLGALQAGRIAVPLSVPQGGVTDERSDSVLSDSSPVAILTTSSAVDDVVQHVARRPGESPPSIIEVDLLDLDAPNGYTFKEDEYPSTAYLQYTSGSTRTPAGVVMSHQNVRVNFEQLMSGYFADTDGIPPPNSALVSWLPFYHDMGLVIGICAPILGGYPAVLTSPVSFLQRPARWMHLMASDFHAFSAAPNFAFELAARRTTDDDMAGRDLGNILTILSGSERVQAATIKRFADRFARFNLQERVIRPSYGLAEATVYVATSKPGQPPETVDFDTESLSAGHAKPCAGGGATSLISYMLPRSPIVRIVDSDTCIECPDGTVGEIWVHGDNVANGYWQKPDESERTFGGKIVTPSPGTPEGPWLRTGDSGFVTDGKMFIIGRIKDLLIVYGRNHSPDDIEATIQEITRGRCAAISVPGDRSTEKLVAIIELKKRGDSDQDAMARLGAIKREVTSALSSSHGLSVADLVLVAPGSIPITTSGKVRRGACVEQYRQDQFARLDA

[18] = target: 5-hydroxytryptamine receptor 2A (Mus musculus, UniProt P35363); assay type: functional, cell-based;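 also: CHO-K1 cells with tagged receptor and beta-arrestin; agonist potency measured as compound-induced activation of the receptor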
[19] = target: T7, Rac GTPase-activating protein 1 (Homo sapiens, UniProt Q9H0H5); experiment: blockers of MgcRacGAP-driven Rac1 GTP hydrolysis – biochemical, ADP Hunter fluorescence, primary and confirmatory, confirmation (AID 624330); assay type: functional
T7 sequence (Q9H0H5 whole entry): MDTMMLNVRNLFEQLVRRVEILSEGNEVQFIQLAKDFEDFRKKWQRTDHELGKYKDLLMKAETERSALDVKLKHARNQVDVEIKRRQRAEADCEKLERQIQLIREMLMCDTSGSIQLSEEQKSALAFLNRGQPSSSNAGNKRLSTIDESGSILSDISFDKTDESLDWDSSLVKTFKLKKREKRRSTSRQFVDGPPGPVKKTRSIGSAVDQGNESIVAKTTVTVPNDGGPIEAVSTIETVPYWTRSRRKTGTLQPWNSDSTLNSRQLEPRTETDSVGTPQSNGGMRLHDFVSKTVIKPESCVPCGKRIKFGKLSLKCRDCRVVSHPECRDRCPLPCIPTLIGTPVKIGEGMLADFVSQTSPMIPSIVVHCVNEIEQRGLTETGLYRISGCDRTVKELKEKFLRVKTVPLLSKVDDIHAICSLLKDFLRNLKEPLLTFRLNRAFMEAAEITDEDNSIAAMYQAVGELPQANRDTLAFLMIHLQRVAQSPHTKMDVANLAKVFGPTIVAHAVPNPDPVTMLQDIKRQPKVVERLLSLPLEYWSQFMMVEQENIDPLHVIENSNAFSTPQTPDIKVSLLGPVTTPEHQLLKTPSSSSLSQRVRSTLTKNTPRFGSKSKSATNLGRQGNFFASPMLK

[20] = HEK-293T cell viability reduction – luminescence, B-cell screen hits, cytotoxicity control for BCR NF-kB inhibitor project, dose response (AID 489021); assay type: functional, cell-based;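 also: HEK-293T cells carrying an NF-kB luciferase reporter; cells exposed to compound for about 14 hours before viability readout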
[21] = target: T8, Sentrin-specific protease 1 (Homo sapiens, UniProt Q9P0U3); experiment: SENP1 catalytic domain blockers, concentration series – biochemical, kinetic FRET, dose response (AID 651697); assay type: functional; conditions: read-out: IC50_Mean
[22] = target: T8, Sentrin-specific protease 1; experiment: Dose response confirmation of small molecule inhibitors of the catalytic domain of the SUMO protease, SENP1 in a FRET assay.; assay type: functional; conditions: read-out: IC50_Mean

T8 sequence (Q9P0U3 whole entry, the tested form may be a part): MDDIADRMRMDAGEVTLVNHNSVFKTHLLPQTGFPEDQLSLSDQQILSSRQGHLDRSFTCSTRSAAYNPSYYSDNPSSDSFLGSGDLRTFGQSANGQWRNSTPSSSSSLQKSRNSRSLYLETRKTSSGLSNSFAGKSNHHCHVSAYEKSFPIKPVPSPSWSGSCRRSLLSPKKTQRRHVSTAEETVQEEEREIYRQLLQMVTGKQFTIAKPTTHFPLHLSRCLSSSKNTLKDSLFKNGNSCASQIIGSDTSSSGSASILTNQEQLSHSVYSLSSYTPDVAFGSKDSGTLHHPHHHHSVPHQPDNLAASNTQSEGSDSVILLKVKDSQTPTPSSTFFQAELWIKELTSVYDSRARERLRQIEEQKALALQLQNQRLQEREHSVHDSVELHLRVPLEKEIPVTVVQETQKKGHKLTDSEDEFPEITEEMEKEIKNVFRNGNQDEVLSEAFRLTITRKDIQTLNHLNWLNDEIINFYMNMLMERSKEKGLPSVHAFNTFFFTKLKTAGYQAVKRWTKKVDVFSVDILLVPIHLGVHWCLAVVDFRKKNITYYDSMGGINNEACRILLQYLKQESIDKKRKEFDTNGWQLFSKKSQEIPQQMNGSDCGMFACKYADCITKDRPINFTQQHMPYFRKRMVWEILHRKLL
Chain of Nonstructural protein 1 (Q194T2 whole entry): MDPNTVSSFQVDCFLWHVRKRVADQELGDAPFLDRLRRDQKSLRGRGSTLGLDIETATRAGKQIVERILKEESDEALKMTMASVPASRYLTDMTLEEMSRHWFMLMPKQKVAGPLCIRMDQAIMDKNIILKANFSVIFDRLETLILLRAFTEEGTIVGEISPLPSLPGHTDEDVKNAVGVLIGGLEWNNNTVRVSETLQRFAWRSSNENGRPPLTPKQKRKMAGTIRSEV
Chain of Photoreceptor-specific nuclear receptor (Q9Y5X4 whole entry, the tested form may be a part): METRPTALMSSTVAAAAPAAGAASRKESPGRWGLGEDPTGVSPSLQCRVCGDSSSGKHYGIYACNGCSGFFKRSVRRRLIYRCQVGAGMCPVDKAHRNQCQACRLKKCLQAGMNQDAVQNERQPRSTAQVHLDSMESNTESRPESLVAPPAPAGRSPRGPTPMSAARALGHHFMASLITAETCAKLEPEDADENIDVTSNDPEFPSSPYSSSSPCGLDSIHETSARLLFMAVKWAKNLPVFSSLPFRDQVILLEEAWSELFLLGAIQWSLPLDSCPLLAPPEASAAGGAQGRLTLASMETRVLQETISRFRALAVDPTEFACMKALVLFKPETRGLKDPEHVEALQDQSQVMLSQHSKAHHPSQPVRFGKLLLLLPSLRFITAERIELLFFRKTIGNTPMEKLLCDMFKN
Chain of E3 ubiquitin-protein ligase Mdm2 (Q00987 whole entry): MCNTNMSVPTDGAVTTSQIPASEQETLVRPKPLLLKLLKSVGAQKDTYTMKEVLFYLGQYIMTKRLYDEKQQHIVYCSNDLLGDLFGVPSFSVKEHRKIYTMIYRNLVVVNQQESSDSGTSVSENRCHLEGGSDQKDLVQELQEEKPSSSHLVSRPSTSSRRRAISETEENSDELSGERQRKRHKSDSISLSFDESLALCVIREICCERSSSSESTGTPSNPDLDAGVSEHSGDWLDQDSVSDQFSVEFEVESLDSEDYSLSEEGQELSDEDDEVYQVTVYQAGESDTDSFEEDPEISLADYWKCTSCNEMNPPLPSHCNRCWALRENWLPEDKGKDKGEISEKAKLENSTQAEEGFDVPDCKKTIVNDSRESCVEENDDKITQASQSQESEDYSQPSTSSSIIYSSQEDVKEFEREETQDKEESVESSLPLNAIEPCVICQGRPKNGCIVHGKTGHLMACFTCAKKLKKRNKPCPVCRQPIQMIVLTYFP
Chain of 5-hydroxytryptamine receptor 2A (P35363 whole entry): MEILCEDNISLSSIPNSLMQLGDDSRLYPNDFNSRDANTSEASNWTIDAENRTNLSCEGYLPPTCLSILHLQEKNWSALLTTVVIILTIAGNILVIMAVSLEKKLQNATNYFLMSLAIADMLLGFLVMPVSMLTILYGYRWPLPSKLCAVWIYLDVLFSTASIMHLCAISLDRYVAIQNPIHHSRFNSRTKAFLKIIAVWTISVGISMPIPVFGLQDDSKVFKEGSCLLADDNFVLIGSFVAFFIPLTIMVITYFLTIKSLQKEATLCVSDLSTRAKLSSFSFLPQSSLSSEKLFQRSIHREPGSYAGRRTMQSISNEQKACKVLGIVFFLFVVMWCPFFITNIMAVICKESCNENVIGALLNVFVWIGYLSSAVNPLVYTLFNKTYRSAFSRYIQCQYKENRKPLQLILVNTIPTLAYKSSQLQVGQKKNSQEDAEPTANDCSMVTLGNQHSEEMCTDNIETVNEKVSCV
Chain of Melanin-concentrating hormone receptor 1 (Q99705 whole entry): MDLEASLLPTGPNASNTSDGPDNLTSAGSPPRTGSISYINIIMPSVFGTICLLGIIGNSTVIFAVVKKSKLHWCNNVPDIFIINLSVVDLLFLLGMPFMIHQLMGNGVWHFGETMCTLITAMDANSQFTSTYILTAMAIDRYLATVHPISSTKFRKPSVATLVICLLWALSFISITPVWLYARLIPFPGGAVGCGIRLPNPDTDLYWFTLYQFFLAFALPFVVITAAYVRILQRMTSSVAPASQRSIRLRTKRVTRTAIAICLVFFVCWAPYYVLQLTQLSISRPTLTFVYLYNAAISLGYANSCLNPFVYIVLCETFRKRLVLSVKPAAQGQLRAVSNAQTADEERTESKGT
Chain of Mu-type opioid receptor (P35372 whole entry): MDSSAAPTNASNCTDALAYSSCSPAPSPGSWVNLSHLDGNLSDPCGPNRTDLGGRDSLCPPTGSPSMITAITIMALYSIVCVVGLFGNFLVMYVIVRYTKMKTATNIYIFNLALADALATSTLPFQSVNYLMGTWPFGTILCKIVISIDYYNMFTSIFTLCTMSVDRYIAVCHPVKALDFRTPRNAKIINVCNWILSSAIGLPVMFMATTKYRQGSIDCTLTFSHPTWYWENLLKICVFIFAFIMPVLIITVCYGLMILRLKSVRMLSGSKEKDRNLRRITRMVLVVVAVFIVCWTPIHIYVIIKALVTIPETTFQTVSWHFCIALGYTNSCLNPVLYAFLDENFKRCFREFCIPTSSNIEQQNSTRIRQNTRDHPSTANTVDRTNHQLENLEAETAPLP

Oc1[nH]c2ccccc2c1N=NC(=S)N1CCOCC1
EC50 [1]: 2.24 µM (not active)
EC50 [2]: 0.271 µM (active)
EC50 [3]: 7.37 µM (active)
EC50 [4]: > 150 µM (not active)
CC50 [5]: 5.25 µM (active)
EC50 [6]: > 350 µM (not active)
EC50 [7]: 5.64 µM (active)
IC50 [8]: 4.88 µM (active)
EC50 [9]: 3.31 µM (inconclusive)
AC50 [10]: > 380 µM (inactive)
EC50 [11]: 12.9 µM (active)
AC50 [12]: 2.25 µM (active)
IC50 [13]: 4.03 µM (active)

C/N=c1\scc(-c2ccc(F)cc2)n1/N=C/c1ccc(O)c(O)c1
IC50 [14]: > 14.6 µM (not active)
IC50 [15]: 13 µM (not active)
EC50 [16]: 92.5 µM (inactive)
AC50 [17]: 12.2 µM (active)
EC50 [18]: 5.08 µM (active)
IC50 [19]: 29.6 µM (active)

N#CC1=C(N)Oc2cc(Nc3ccccc3)ccc2C1c1ccncc1 (configuration not stated)
IC50 [20]: 48.3 µM (inactive)
IC50 [21]: 41.9 µM (inactive)
IC50 [22]: 30.5 µM (inactive)
